Source: publication PMC7496931, “Activation of Sirtuin 2 Inhibitors Employing Photoswitchable Geometry and Aqueous Solubility” (Chemmedchem, 2020)
Several values for one entry are separate records, joined by “and”; a condition that tells them apart may be missing. Identical values can stand only once. Like-named read-outs stand apart in the source and are kept apart here.

Tests used:
Format in all cases: biochemical
Sirt1 = molecular target: T1, Sirt1 (Homo sapiens, UniProt Q96EB6); assay: Fluorescence-based ZMAL deacetylase activity assay, Sirt1
T1 construct: Expression and purification of Sirt1_133−747, Sirt2_56−356, and Sirt3_118−395 was carried out as described previously; made in house
T1 sequence (Q96EB6 133-747): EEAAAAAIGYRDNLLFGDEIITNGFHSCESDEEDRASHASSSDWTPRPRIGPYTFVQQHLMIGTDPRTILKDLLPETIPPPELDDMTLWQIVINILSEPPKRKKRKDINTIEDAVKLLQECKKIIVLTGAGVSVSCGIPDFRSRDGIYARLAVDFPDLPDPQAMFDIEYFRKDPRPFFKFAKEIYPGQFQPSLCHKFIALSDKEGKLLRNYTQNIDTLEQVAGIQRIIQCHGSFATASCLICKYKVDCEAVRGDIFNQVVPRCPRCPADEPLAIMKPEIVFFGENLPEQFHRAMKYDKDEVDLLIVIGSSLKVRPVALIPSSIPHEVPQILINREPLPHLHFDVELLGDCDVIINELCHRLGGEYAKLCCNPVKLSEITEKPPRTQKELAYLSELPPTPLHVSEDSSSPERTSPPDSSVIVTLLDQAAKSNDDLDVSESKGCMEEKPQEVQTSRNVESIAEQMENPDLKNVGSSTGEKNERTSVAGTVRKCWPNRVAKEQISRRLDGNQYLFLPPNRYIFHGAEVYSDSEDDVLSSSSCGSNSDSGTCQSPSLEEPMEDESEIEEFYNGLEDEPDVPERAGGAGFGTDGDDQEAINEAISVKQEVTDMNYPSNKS
Protocol: (§1) The effect of the compounds on deacetylase activity of three human sirtuin isotypes (Sirt1–3) was investigated by a homogeneous fluorescence‐based assay, using (Z)‐Lys(acetyl)‐AMC (ZMAL) as substrate. In order to determine the impact of photoisomerization, the respective compounds were irradiated (365 nm, 5 min) in DMSO prior to incubation in the enzyme assay mixture. The results of the irradiated probes were finally compared to non‐irradiated measurements.
(§2) Cloning, expression and purification of recombinant proteins: Expression and purification of Sirt1_133−747, Sirt2_56−356, and Sirt3_118−395 was carried out as described previously.27 Identity and purity were verified by SDS‐PAGE.
(§3) Fluorescence‐based activity assay: The inhibitory effect of compounds on Sirt1–3 was detected via a previously reported fluorescence‐based assay.29 The synthetic substrate (Z)‐Lys(acetyl)‐AMC (ZMAL) is deacetylated by sirtuins, followed by tryptic digestion and thereby release of 7‐aminomethylcoumarin, leading to a fluorescent readout. Inhibition was determined by comparing percentage substrate conversion to a DMSO control after subtraction of the blank fluorescence signal. All compounds were tested at 100 or 50 μM and 10 μM respectively. […] IC50 values were calculated with OriginPro 9.0 G using a non‐linear regression to fit the dose response curve (Figure S6). An enzyme‐free blank control and a 100 % conversion control using AMC instead of ZMAL were measured as well. Inhibition measurements were performed in biological duplicates for all compounds. […]
(§4) Fluorescence-Based Activity Assay (ZMAL-Assay)
(§5) The influence of the synthesized compounds on the deacetylase activity of the class I sirtuins Sirt1–3 was determined in a homogenous fluorescence-based enzyme assay, using the artificial substrate Z-(Ac)Lys-AMC (ZMAL). ZMAL is processed by sirtuins yielding Z-Lys-AMC.
(§6) The latter is subsequently cleaved by tryptic digestion, releasing 7-amino-4-methylcoumarin (AMC), excitation of which leads to a fluorescent read out (λex=390 nm; λem=460 nm). Instead, […]
(§7) contribute to the fluorescence signal. Therefore, the fluorescence intensity is proportional to the activity of the respective sirtuin.
(§8) After subtraction of the blank fluorescence signal (without enzyme) from the signal of the respective probe, the residual signal intensity is related to a 100 % conversion control (AMC), […]
(§9) yielding the percentage substrate conversion. Comparison of the determined substrate conversion with a no-inhibition DMSO control yields the percentage inhibition at the respective […]
(§10) For determination of IC50, inhibitory activity of the respective compound was determined at 8 to 10 distinct concentrations. The measured values were analysed by a non-linear fit to the dose-response curve using a four parameter logistic model (Figure S6):
(§11) Figure S6: Non-linear regression of the dose-response curves of compounds 15c and 15f at the thermal equilibrium (∆, black) and after 5 minutes of 365 nm irradiation (red). […]
A maximal polarization control using just DMSO and a minimal polarization control using 1 µL of the 400 µM solution of 22 instead of inhibitor were performed as well as a blank control containing 1 µL of DMSO in 19 µL assay buffer. The mixture was incubated 10 min at 37 °C […]
(1 picture or pasted object on this page, not shown here)

Sirt2 = molecular target: T2, Sirt2 (Homo sapiens, UniProt Q8IXJ6); assay: Fluorescence-based ZMAL deacetylase activity assay, Sirt2
T2 construct: Expression and purification of Sirt1_133−747, Sirt2_56−356, and Sirt3_118−395 was carried out as described previously; made in house
T2 sequence (Q8IXJ6 56-356): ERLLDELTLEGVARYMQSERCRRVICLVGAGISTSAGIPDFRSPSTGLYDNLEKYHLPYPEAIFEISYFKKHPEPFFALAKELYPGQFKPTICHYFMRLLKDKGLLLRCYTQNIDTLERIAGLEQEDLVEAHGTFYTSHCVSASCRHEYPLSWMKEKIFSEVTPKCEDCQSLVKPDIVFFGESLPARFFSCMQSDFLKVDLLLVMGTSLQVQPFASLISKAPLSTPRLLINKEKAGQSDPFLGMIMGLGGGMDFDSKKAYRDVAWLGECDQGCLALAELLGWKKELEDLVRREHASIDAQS
Protocol: as §1, §2, §3, §4, §5, §6, §7, §8, §9, §10, §11
(§12) A maximal polarization control using just DMSO and a minimal polarization control using 1 µL of the 400 µM solution of 22 instead of inhibitor were performed as well as a blank control containing 1 µL of DMSO in 19 µL assay buffer. The mixture was incubated 10 min at 37 °C

Sirt3 = molecular target: T3, Sirt3 (Homo sapiens, UniProt Q9NTG7); assay: Fluorescence-based ZMAL deacetylase activity assay, Sirt3; set-up: key to Sirt3 inhibition Δ (class) / Sirt3 inhibition PSS [365 nm] (class): n.i.: no inhibition detected (<30 % @ 100 μM); u.i.: unspecific interactions
T3 construct: Expression and purification of Sirt1_133−747, Sirt2_56−356, and Sirt3_118−395 was carried out as described previously; made in house
T3 sequence (Q9NTG7 118-395): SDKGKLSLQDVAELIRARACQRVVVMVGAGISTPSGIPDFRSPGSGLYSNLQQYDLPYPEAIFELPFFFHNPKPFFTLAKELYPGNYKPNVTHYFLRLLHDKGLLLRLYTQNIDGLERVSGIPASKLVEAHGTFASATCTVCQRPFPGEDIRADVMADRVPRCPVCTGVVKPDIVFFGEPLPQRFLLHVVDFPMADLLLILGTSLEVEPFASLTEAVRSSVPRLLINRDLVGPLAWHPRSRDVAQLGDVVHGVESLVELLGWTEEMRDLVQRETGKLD
Protocol: as §1, §2, §3, §4, §5, §6, §7, §8, §9, §10, §11, §12

[1] = PSS after 5 min UV irradiation (365 nm), read-out: Sirt1 inhibition PSS [365 nm] (class)
[2] = thermal equilibrium (Δ), read-out: Sirt1 inhibition Δ (class)
[3] = PSS after 5 min UV irradiation (365 nm), read-out: Sirt2 inhibition PSS [365 nm], percent inhibition (converted)
[4] = thermal equilibrium (Δ), read-out: Sirt2 inhibition Δ, percent inhibition (converted)
[5] = thermal equilibrium (Δ), read-out: Sirt2 inhibition Δ, percent inhibition
[6] = PSS after 5 min UV irradiation (365 nm), read-out: Sirt3 inhibition PSS [365 nm], percent inhibition
[7] = thermal equilibrium (Δ), read-out: Sirt3 inhibition Δ, percent inhibition
[8] = PSS after 5 min UV irradiation (365 nm), read-out: Sirt2 inhibition PSS [365 nm], IC50
[9] = thermal equilibrium (Δ), read-out: Sirt2 inhibition Δ, IC50
[10] = PSS after 5 min UV irradiation (365 nm)
[11] = PSS after 5 min UV irradiation (365 nm), read-out: Sirt2 inhibition PSS [365 nm], percent inhibition

Compound | inhibition at 100 µM (Sirt1; [1]) [%] | inhibition at 100 µM (Sirt1; [2]) [%] | inhibition at 10 µM (Sirt2; [3]) [%] | inhibition at 10 µM (Sirt2; [4]) [%] | Sirt3 inhibition PSS [365 nm] (class) (Sirt3; [10]) | Sirt3 inhibition Δ (class) (Sirt3; thermal equilibrium (Δ)) | further results
NC(=O)c1cncc(/N=N/c2c(O)ccc3ccccc23)c1 [7 c] | – | – | – | – | – | – | Sirt1 inhibition (class) (Sirt1; non-irradiated): n.i. (n.i.: no inhibition detected (<30 % @ 100 μM)); inhibition at 10 µM (Sirt2; non-irradiated, read-out: Sirt2 inhibition, percent inhibition relative to controls): 55%; inhibition at 10 µM (Sirt3; non-irradiated, read-out: Sirt3 inhibition, percent inhibition relative to controls): 64%
Cc1cc(/N=N/c2cncc(C(N)=O)c2)cc(C)c1N [7 f] | – | – | – | – | – | – | inhibition at 100 µM (Sirt1; @ 100 μM, non-irradiated, read-out: Sirt1 inhibition, percent inhibition relative to controls): 47%; IC50 (Sirt2; non-irradiated, read-out: Sirt2 inhibition, IC50): 6 µM and 5.8 µM; IC50 (Sirt3; non-irradiated, read-out: Sirt3 inhibition, IC50): 9 µM and 9.4 µM
CCCCCCCC(=O)Nc1c(C)cc(/N=N/c2cncc(C(N)=O)c2)cc1C [9 d] | < 30 | < 30 | 54 | 26 | u.i. | u.i. | increase of Sirt2 inhibition upon 365 nm irradiation (factor) (Sirt2; PSS 365 nm versus thermal equilibrium): about fivefold; IC50 (Sirt2; [8]): 7.9 ± 0.7 µM; IC50 (Sirt2; [9]): 44 ± 9.5 µM
CCCCCCCCCC(=O)Nc1c(C)cc(/N=N/c2cncc(C(N)=O)c2)cc1C [9 e] | < 30 | < 30 | 78 | 26 | u.i. | u.i. | –
CCCCCCCCCCCC(=O)Nc1c(C)cc(/N=N/c2cncc(C(N)=O)c2)cc1C [9 f] | < 30 | < 30 | 65 | 46 | u.i. | u.i. | –
CCCCCCCCCCCCCC(=O)Nc1c(C)cc(/N=N/c2cncc(C(N)=O)c2)cc1C [9 g] | < 30 | < 30 | – | – | u.i. | u.i. | IC50 (Sirt2; [8]): 0.9 ± 0.2 µM; IC50 (Sirt2; [9]): 2.2 ± 0.3 µM
Cc1cc(/N=N/c2cncc(C(N)=O)c2)cc(C)c1NC(=O)c1ccccc1 [9 h] | < 30 | < 30 | – | – | – | n.i. (n.i.: no inhibition detected (<30 % @ 100 μM)) | inhibition at 100 µM (Sirt2; [11]): 52%; inhibition at 100 µM (Sirt2; [5]): 27%; inhibition at 100 µM (Sirt3; [6]): 32%
Cc1cc(/N=N/c2cncc(C(N)=O)c2)cc(C)c1NC(=O)c1ccc(F)cc1 [9 i] | < 30 | < 30 | 15 | 15 | n.i. (n.i.: no inhibition detected (<30 % @ 100 μM)) | n.i. (n.i.: no inhibition detected (<30 % @ 100 μM)) | –
Cc1cc(/N=N/c2cncc(C(N)=O)c2)cc(C)c1NC(=O)C12CC3CC(CC(C3)C1)C2 [9 k] | < 30 | < 30 | – | – | n.i. (n.i.: no inhibition detected (<30 % @ 100 μM)) | n.i. (n.i.: no inhibition detected (<30 % @ 100 μM)) | inhibition at 100 µM (Sirt2; [11]): 71%; inhibition at 100 µM (Sirt2; [5]): 43%
CC(C)(C)OC(=O)c1ccc(/N=N/c2cncc(C(N)=O)c2)cc1 [15 a] | – | < 30 | – | – | – | – | inhibition at 10 µM (Sirt1; @ 10 μM, PSS after 5 min UV irradiation (365 nm), read-out: Sirt1 inhibition PSS [365 nm], percent inhibition): 7%; IC50 (Sirt2; [8]): 6.8 ± 0.4 µM; IC50 (Sirt2; [9]): 6 ± 1.1 µM; inhibition at 10 µM (Sirt3; [6]): 45%; inhibition at 10 µM (Sirt3; [7]): 42%
CC(C)(C)OC(=O)Cc1ccc(/N=N/c2cncc(C(N)=O)c2)cc1 [15 b] | – | – | – | – | – | – | inhibition at 100 µM (Sirt1; @ 100 μM, PSS after 5 min UV irradiation (365 nm), read-out: Sirt1 inhibition PSS [365 nm], percent inhibition): 44%; inhibition at 100 µM (Sirt1; @ 100 μM, thermal equilibrium (Δ), read-out: Sirt1 inhibition Δ, percent inhibition): 35%; IC50 (Sirt2; [8]): 6.9 ± 0.6 µM; IC50 (Sirt2; [9]): 3.9 ± 0.2 µM; inhibition at 10 µM (Sirt3; [6]): 30%; inhibition at 10 µM (Sirt3; [7]): 58%

More lines, main results first:

inhibition at 100 µM (Sirt1; [1]) [%] | inhibition at 100 µM (Sirt1; [2]) [%] | inhibition at 10 µM (Sirt2; [3]) [%] | inhibition at 10 µM (Sirt2; [4]) [%] | Sirt3 inhibition PSS [365 nm] (class) (Sirt3; [10]) | Sirt3 inhibition Δ (class) (Sirt3; thermal equilibrium (Δ)) | Compound | further results
< 30 | < 30 | 11 | 17 | – | – | CC(=O)Nc1c(C)cc(/N=N/c2cncc(C(N)=O)c2)cc1C [9 a] | inhibition at 100 µM (Sirt2; [5]): 65%; inhibition at 100 µM (Sirt3; [6]): 52%; inhibition at 100 µM (Sirt3; [7]): 68%
< 30 | < 30 | 4 | 30 | – | – | CCCC(=O)Nc1c(C)cc(/N=N/c2cncc(C(N)=O)c2)cc1C [9 b] | inhibition at 100 µM (Sirt3; [6]): 52%; inhibition at 100 µM (Sirt3; [7]): 80%
< 30 | < 30 | 24 | 40 | – | – | CCCCCC(=O)Nc1c(C)cc(/N=N/c2cncc(C(N)=O)c2)cc1C [9 c] | inhibition at 10 µM (Sirt3; [6]): 3%; inhibition at 10 µM (Sirt3; [7]): 20%
< 30 | < 30 | – | – | u.i. | u.i. | Cc1cc(/N=N/c2cncc(C(N)=O)c2)cc(C)c1NC(=O)c1ccc(-c2cccs2)cc1 [9 j] | inhibition at 100 µM (Sirt2; [11]): 59%; inhibition at 100 µM (Sirt2; [5]): 80%
